Source: US20250243160A1, “INDOLE DERIVATIVES FOR TARGETING AUTOPHAGY” (Automera PTE. LTD, priority 2024, published 2025)

Each molecule was assayed on p62 puncta (assay: p62 puncta immunocytochemistry imaging in HeLa cells). Conditions: 24 hours treatment, relative to vehicle control (DMSO).
Assay type: cell-based
Description: HeLa cells were seeded in coated 96-well plates (10,000 cells) and allowed to adhere overnight. After 24 hours of treatment with either vehicle (DMSO) or test compounds, the media was discarded, and cells were rinsed with ice-cold 1×PBS before fixation by 4% formaldehyde or paraformaldehyde for 20 min. Cells were then washed with 1×PBS and permeabilized with 0.1% Triton X-100 in PBS for 20 min and blocked with Blocking Buffer in PBS for 1 hour. The cells were incubated thereafter for 1 hour with anti-p62 primary antibody in Blocking Buffer, followed by incubation with secondary antibody for 1 hour. DAPI dye was used to visualize nuclei of fixed cells. The blocking buffer used were 5% Fetal Bovine Serum (FBS, ThermoFIsher Scientific, 10270106) and Li-cor Intercept (PBS) Blocking Buffer (Li-cor, 927-70001). The primary antibody used was mouse anti-p62 primary antibody (Novus Biologicals, H00008878-M01). The secondary antibodies used were goat anti-mouse Alexa Fluor Plus 488 secondary antibody (Invitrogen, GOXMS) and goat anti-mouse Alexa Fluor 488 secondary antibody (Invitrogen, A-11029). The DAPI dyes used were DAPI dye (Invitrogen, 62248) and DAPI dye (Invitrogen, D1306).
For the EVOS M7000 System, cells were imaged on the EVOS M7000 microscope using a 20× air objective (Nikon, N.A 0.45). DAPI and p62 channels were illuminated with LED light cubes using integrated hard-coated filter sets for DAPI (357/447 nm) and GFP (470/525 nm) respectively. Images were analysed for p62 puncta count on the Celeste 6.0 software.
For the Operetta CLS System, cells were imaged on the Operetta CLS using a 63× water objective on the DAPI and Alexa 488 channels. Images were analysed for p62 puncta count on the Harmony 5.1 software.
HeLa cells were treated with compounds for 24 hours to evaluate the effect of these compounds on p62 puncta activity. The resulting changes in levels of p62 puncta were assessed by imaging, either on the EVOS M7000 or Operetta CLS systems as described in experimental procedures. The fold change of p62 puncta levels induced by compound treatment relative to vehicle control (DMSO) was determined and summarized in Table 10.
In the case of `CC(C)(C)OC(=O)NCCOCCOCCNCc1cc(F)cc2c1ccn2Cc1ccc(Cl)cc1` [Compound 135], the “p62 puncta (fold change of p62 puncta levels)” value was “++ (>2-fold change in p62 puncta levels relative to DMSO control)”. In the case of `CC(C)(C)OC(=O)CCOCCNCc1cc(F)cc2c1ccn2Cc1ccc(Cl)cc1` [Compound 142], the “p62 puncta (fold change of p62 puncta levels)” value was “+ (<2-fold change in p62 puncta levels relative to DMSO control)”. With `C#CCCCCCOCCNCc1cc(F)cc2c1ccn2Cc1ccc(Cl)cc1` [Compound 148] the “p62 puncta (fold change of p62 puncta levels)” value was “+ (<2-fold change in p62 puncta levels relative to DMSO control)”. `CNCCOCc1cccc2c1ccn2Cc1ccc(F)cc1` [Compound 77] was tested, and the “p62 puncta (fold change of p62 puncta levels)” value was “++ (>2-fold change in p62 puncta levels relative to DMSO control)”. In the case of `CC(C)(C)OC(=O)N1CC(COCCNCc2cc(F)cc3c2ccn3Cc2ccc(Cl)cc2)C1` [Compound 164], the “p62 puncta (fold change of p62 puncta levels)” value was “++ (>2-fold change in p62 puncta levels relative to DMSO control)”. With `C#CCCOCCOCCNCC(O)COc1cccc2c1ccn2Cc1ccccc1` (stereo not drawn) [Compound 117] the “p62 puncta (fold change of p62 puncta levels)” value was “++ (>2-fold change in p62 puncta levels relative to DMSO control)”. In the case of `CC(C)(C)OC(=O)Nc1cccc(COCCNCc2cc(F)cc3c2ccn3Cc2ccc(Cl)cc2)c1` [Compound 162], the “p62 puncta (fold change of p62 puncta levels)” value was “++ (>2-fold change in p62 puncta levels relative to DMSO control)”. For `C#CCCOCCOCCOCCNCc1cccc2c1ccn2CCc1cccnc1` [Compound 126], the “p62 puncta (fold change of p62 puncta levels)” value was “+ (<2-fold change in p62 puncta levels relative to DMSO control)”. For `COC(=O)c1ccc(COCCNCc2cc(F)cc3c2ccn3Cc2ccc(Cl)cc2)cc1` [Compound 144], the “p62 puncta (fold change of p62 puncta levels)” value was “+ (<2-fold change in p62 puncta levels relative to DMSO control)”. `CCOC(=O)C1CCN(C(=O)COCCNCc2cc(F)cc3c2ccn3Cc2ccc(Cl)cc2)CC1` [Compound 152] was tested, and the “p62 puncta (fold change of p62 puncta levels)” value was “+ (<2-fold change in p62 puncta levels relative to DMSO control)”. In the case of `OCCNCc1ccc(Cl)c2c1ccn2Cc1ccc(F)cc1` [Compound 80], the “p62 puncta (fold change of p62 puncta levels)” value was “++ (>2-fold change in p62 puncta levels relative to DMSO control)”. In the case of `COC(=O)c1ccc(OCCOCCNCc2cc(F)cc3c2ccn3Cc2ccc(Cl)cc2)cc1` [Compound 168], the “p62 puncta (fold change of p62 puncta levels)” value was “++ (>2-fold change in p62 puncta levels relative to DMSO control)”. For `C#CCCN1CCC(COCCNCc2cc(F)cc3c2ccn3Cc2ccc(Cl)cc2)CC1` [Compound 120], the “p62 puncta (fold change of p62 puncta levels)” value was “++ (>2-fold change in p62 puncta levels relative to DMSO control)”. For `C#CCOCCOCCNCc1cc(F)cc2c1ccn2Cc1ccc(Cl)cc1` [Compound 140], the “p62 puncta (fold change of p62 puncta levels)” value was “++ (>2-fold change in p62 puncta levels relative to DMSO control)”. With `OCCNCc1ccnc2c1ccn2Cc1ccc(Cl)cc1` [Compound 111] the “p62 puncta (fold change of p62 puncta levels)” value was “+ (<2-fold change in p62 puncta levels relative to DMSO control)”. For `CC(C)(C)OC(=O)NCCCCCCCCOCCNCc1cc(F)cc2c1ccn2Cc1ccc(Cl)cc1` [Compound 158], the “p62 puncta (fold change of p62 puncta levels)” value was “++ (>2-fold change in p62 puncta levels relative to DMSO control)”. For `COC1CN(Cc2cncc3c2ccn3Cc2ccc(F)cc2)C1` [Compound 114], the “p62 puncta (fold change of p62 puncta levels)” value was “+ (<2-fold change in p62 puncta levels relative to DMSO control)”. In the case of `CC(C)(C)OC(=O)N[C@H]1CC[C@@H](COCCNCc2cc(F)cc3c2ccn3Cc2ccc(Cl)cc2)CC1` [Compound 176], the “p62 puncta (fold change of p62 puncta levels)” value was “++ (>2-fold change in p62 puncta levels relative to DMSO control)”. For `CC(C)(C)OC(=O)N1CCC(COCCNCc2cc(F)cc3c2ccn3Cc2ccc(Cl)cc2)CC1` [Compound 134], the “p62 puncta (fold change of p62 puncta levels)” value was “++ (>2-fold change in p62 puncta levels relative to DMSO control)”. With `COC(=O)CCOCCOCCNCc1cc(F)cc2c1ccn2Cc1ccc(Cl)cc1` [Compound 88] the “p62 puncta (fold change of p62 puncta levels)” value was “+ (<2-fold change in p62 puncta levels relative to DMSO control)”. `CC(C)(C)OC(=O)CCCCCOCCNCc1cc(F)cc2c1ccn2Cc1ccc(Cl)cc1` [Compound 150] was tested, and the “p62 puncta (fold change of p62 puncta levels)” value was “+ (<2-fold change in p62 puncta levels relative to DMSO control)”. For `CC(C)(C)OC(=O)CCCCOCCNCc1cc(F)cc2c1ccn2Cc1ccc(Cl)cc1` [Compound 147], the “p62 puncta (fold change of p62 puncta levels)” value was “+ (<2-fold change in p62 puncta levels relative to DMSO control)”. With `Fc1cc(CNCCOCCCCl)c2ccn(Cc3ccc(Cl)cc3)c2c1` [Compound 146] the “p62 puncta (fold change of p62 puncta levels)” value was “++ (>2-fold change in p62 puncta levels relative to DMSO control)”. In the case of `CC(C)(C)OC(=O)NC1CCN(CCOCCNCc2cc(F)cc3c2ccn3Cc2ccc(Cl)cc2)CC1` [Compound 127], the “p62 puncta (fold change of p62 puncta levels)” value was “++ (>2-fold change in p62 puncta levels relative to DMSO control)”. For `CC(C)(C)OC(=O)NC1(COCCNCc2cc(F)cc3c2ccn3Cc2ccc(Cl)cc2)CC1` [Compound 165], the “p62 puncta (fold change of p62 puncta levels)” value was “++ (>2-fold change in p62 puncta levels relative to DMSO control)”. In the case of `CC(C)(C)OC(=O)CCCOCCNCc1cc(F)cc2c1ccn2Cc1ccc(Cl)cc1` [Compound 154], the “p62 puncta (fold change of p62 puncta levels)” value was “++ (>2-fold change in p62 puncta levels relative to DMSO control)”. In the case of `CC(C)(C)OC(=O)N1CC(OCCNCc2cc(F)cc3c2ccn3Cc2ccc(Cl)cc2)C1` [Compound 167], the “p62 puncta (fold change of p62 puncta levels)” value was “++ (>2-fold change in p62 puncta levels relative to DMSO control)”. In the case of `C#CCCOCCOCCNCc1cc(F)cc2c1ccn2Cc1ccc(Cl)cc1` [Compound 86], the “p62 puncta (fold change of p62 puncta levels)” value was “++ (>2-fold change in p62 puncta levels relative to DMSO control)”. `O=C(Cn1ccc2c(CNCCO)cc(F)cc21)c1ccc(F)cc1` [Compound 83, 2-(6-fluoro-4-(((2-hydroxyethyl)amino)methyl)-1H-indol-1-yl)-1-(4-fluorophenyl)ethan-1-one] was tested, and the “p62 puncta (fold change of p62 puncta levels)” value was “++ (>2-fold change in p62 puncta levels relative to DMSO control)”. `CC(C)(C)OC(=O)CCCCCCCCOCCNCc1cc(F)cc2c1ccn2Cc1ccc(Cl)cc1` [Compound 149] was tested, and the “p62 puncta (fold change of p62 puncta levels)” value was “+ (<2-fold change in p62 puncta levels relative to DMSO control)”. For `CC(C)(C)OC(=O)N1CCN(CCOCCNCc2cc(F)cc3c2ccn3Cc2ccc(Cl)cc2)CC1` [Compound 156], the “p62 puncta (fold change of p62 puncta levels)” value was “++ (>2-fold change in p62 puncta levels relative to DMSO control)”. With `CNCCOCc1cc(F)cc2c1ccn2Cc1ccc(Cl)cc1` [Compound 178] the “p62 puncta (fold change of p62 puncta levels)” value was “++ (>2-fold change in p62 puncta levels relative to DMSO control)”. `CC(C)(C)OC(=O)NCCCCCCOCCNCc1cc(F)cc2c1ccn2Cc1ccc(Cl)cc1` [Compound 159] was tested, and the “p62 puncta (fold change of p62 puncta levels)” value was “++ (>2-fold change in p62 puncta levels relative to DMSO control)”. `COC(=O)CCOCCOCCOCCNCc1cc(F)cc2c1ccn2Cc1ccc(Cl)cc1` [Compound 169] was tested, and the “p62 puncta (fold change of p62 puncta levels)” value was “+ (<2-fold change in p62 puncta levels relative to DMSO control)”. With `CC(C)(C)OC(=O)Nc1ccc(COCCNCc2cc(F)cc3c2ccn3Cc2ccc(Cl)cc2)cc1` [Compound 160] the “p62 puncta (fold change of p62 puncta levels)” value was “++ (>2-fold change in p62 puncta levels relative to DMSO control)”. `COCCNCc1cc(F)cc2c1ccn2Cc1ccc(Cl)cc1` [Compound 108] was tested, and the “p62 puncta (fold change of p62 puncta levels)” value was “++ (>2-fold change in p62 puncta levels relative to DMSO control)”. In the case of `CC(C)(C)OC(=O)COCCCOCCNCc1cc(F)cc2c1ccn2Cc1ccc(Cl)cc1` [Compound 139], the “p62 puncta (fold change of p62 puncta levels)” value was “+ (<2-fold change in p62 puncta levels relative to DMSO control)”. With `CC(C)(C)OC(=O)N1CCC(OCCOCCNCc2cc(F)cc3c2ccn3Cc2ccc(Cl)cc2)CC1` [Compound 93] the “p62 puncta (fold change of p62 puncta levels)” value was “++ (>2-fold change in p62 puncta levels relative to DMSO control)”. In the case of `OCCNCc1cc2ccn(Cc3ccc(F)cc3)c2cc1F` [Compound 112, 2-(((6-fluoro-1-(4-fluorobenzyl)-1H-indol-5-yl)methyl)amino)ethan-1-ol], the “p62 puncta (fold change of p62 puncta levels)” value was “++ (>2-fold change in p62 puncta levels relative to DMSO control)”. In the case of `CC(C)(C)OC(=O)NCC1CC(COCCNCc2cc(F)cc3c2ccn3Cc2ccc(Cl)cc2)C1` (stereo not drawn) [Compound 172], the “p62 puncta (fold change of p62 puncta levels)” value was “++ (>2-fold change in p62 puncta levels relative to DMSO control)”. With `C#CCOCCOCCOCCNCc1cc(F)cc2c1ccn2Cc1ccc(Cl)cc1` [Compound 137] the “p62 puncta (fold change of p62 puncta levels)” value was “++ (>2-fold change in p62 puncta levels relative to DMSO control)”. For `COC1CCN(CCOCCNCc2cc(F)cc3c2ccn3Cc2ccc(Cl)cc2)CC1` [Compound 129], the “p62 puncta (fold change of p62 puncta levels)” value was “++ (>2-fold change in p62 puncta levels relative to DMSO control)”.
